In the assay the target is recombinant HCV NS5B (Hepatitis C virus genotype 1b, UniProt P26663). The experiment in a line: biochemical. The settings on record: flashplate, polyrA/biotinylated-oligo dT, 100 nM NS5B, 2 hrs at room temperature; read-out: RNA pol Assay 2 IC50 (μm). On the procedure: In vitro HCV RdRp Flashplate Scintillation Proximity Assay (Strep-Flash Assay) Used to Evaluate Analogues:
In brief, a 400 ng/μl polyrA solution (Amersham Pharmacia Biotech) was mixed volume-to-volume with 5′ biotin-oligo dT12 at 20 pmol/μl. The template and primers were denatured at 95 C for 5 minutes then incubated at 37 C for 10 minutes. Annealed template-primers were subsequently diluted in a Tris-HCl containing buffer and allowed to bind to streptavidin-coated flashplates overnight.
Chain of recombinant HCV NS5B (P26663 2420-3010 limits assumed): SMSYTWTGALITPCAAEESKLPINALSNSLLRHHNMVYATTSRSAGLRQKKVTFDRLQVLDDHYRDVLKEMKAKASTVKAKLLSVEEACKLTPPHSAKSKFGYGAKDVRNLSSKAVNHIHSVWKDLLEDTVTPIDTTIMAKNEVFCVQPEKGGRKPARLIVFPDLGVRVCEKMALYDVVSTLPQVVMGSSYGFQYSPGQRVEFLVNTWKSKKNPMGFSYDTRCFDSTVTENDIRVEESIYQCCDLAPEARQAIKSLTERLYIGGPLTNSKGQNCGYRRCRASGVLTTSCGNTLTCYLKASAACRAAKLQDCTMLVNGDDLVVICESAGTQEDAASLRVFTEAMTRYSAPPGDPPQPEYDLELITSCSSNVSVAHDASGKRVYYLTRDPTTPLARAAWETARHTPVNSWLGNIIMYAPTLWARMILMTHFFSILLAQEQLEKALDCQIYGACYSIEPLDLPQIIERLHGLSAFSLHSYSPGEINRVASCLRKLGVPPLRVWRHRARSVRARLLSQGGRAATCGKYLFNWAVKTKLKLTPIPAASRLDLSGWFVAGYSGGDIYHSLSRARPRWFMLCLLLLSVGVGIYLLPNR
As for `O=C(O)[C@H](Cc1ccccc1)N(Cc1ccc([N+](=O)[O-])cc1)C(=O)c1ccc(Cl)cc1Cl` [Compound #202, 2-[(2,4-DICHLORO-BENZOYL)-(4-NITRO-BENZYL)-AMINO]-3-PHENYL-PROPIONIC], the IC50 was in the range of 5 to 20 µM. Consider `COC(=O)c1cccc(CN(C(=O)c2ccc(Cl)cc2Cl)[C@@H](Cc2ccccc2)C(=O)O)c1` [Compound #117, 3-{[(1-Carboxy-2-phenyl-ethyl)-(2,4-dichloro-benzoyl)-amino]-methyl}-benzoic acid methyl ester], for which the IC50 was below 5 µM. Consider `CS(=O)(=O)c1ccc(CN(C(=O)c2ccc(Cl)cc2Cl)[C@@H](Cc2ccccc2)C(=O)O)cc1` [compound #150, (2s)-2-[(2,4-Dichloro-benzoyl)-(4-methanesulfonyl-benzyl)-amino]-3-phenyl-propionic acid], for which the IC50 is below 5 µM. On to `O=C(O)C(Cc1ccccc1)N(Cc1ccc(OCc2ccc(F)cc2)cc1)C(=O)c1ccc(Cl)cc1Cl` (stereo not shown) [compound #172, 2-{(2,4-Dichloro-benzoyl)-[4-(4-fluoro-benzyloxy)-benzyl]-amino}-3-phenyl-propionic acid], for which the IC50 lay within 5 to 20 µM. On to `O=C(O)C(c1cccs1)N(Cc1ccc(-c2cccc(C(F)(F)F)c2)o1)C(=O)c1ccc(Cl)cc1Cl` (stereo not shown) [compound #163, {(2,4-Dichloro-benzoyl)-[5-(3-trifluoromethyl-phenyl)-furan-2-ylmethyl]-amino}-thiophen-2-yl-acetic acid], for which the IC50 is 5 to 20 µM. Consider `COc1ccc(C(C)C)cc1-c1ccsc1CN(C(=O)c1ccc(Cl)cc1Cl)[C@@H](Cc1ccccc1)C(=O)O` [compound #178, 2-{(2,4-Dichloro-benzoyl)-[3-(5-isopropyl-2-methoxy-phenyl)-thiophen-2-ylmethyl]-amino}-3-phenyl-propionic acid], for which the IC50 fell in the range of 5 to 20 µM. As to `O=C(O)[C@H](Cc1ccccc1)N(Cc1ccc(-c2cccc(C(F)(F)F)c2)s1)C(=O)c1ccc(Cl)cc1Cl` [Compound #211, 2-{(2,4-Dichloro-benzoyl)-[5-(3-trifluoromethyl-phenyl)-thiophen-2-ylmethyl]-amino}-3-phenyl-propionic acid], the 50% inhibitory concentration (IC50) was 5 to 20 µM. The result for `O=C(O)[C@H](Cc1ccccc1)N(C(=O)c1ccc(Cl)cc1Cl)C1CCN(C(=O)OCc2ccccc2)CC1` [compound #166, 4-[(1-Carboxy-2-phenyl-ethyl)-(2,4-dichloro-benzoyl)-amino]-piperidine-1-carboxylic acid benzyl ester] reads 5 to 20 µM. Consider `N#Cc1ccccc1CN(C(=O)c1ccc(Cl)cc1Cl)[C@@H](Cc1ccccc1)C(=O)O` [Compound #203, 2-[(2-CYANO-BENZYL)-(2,4-DICHLORO-BENZOYL)-AMINO]-3-PHENYL-PROPIONIC ACID], for which the IC50 lay within 5 to 20 µM. The same measure for `O=C(O)[C@H](Cc1ccccc1)N(Cc1cnc(-c2cc3ccccc3o2)s1)C(=O)c1ccc(Cl)cc1Cl` [compound #86, 2-[(2-Benzofuran-2-yl-thiazol-5-ylmethyl)-(2,4-dichloro-benzoyl)-amino]-3-phenyl-propionic acid]: below 5 µM; for `Cc1cccc(-c2ccsc2CN(C(=O)c2ccc(Cl)cc2Cl)[C@@H](Cc2ccccc2)C(=O)O)c1` [compound #158, (2s)-2-[(2,4-Dichloro-benzoyl)-(3-m-tolyl-thiophen-2-ylmethyl)-amino]-3-phenyl-propionic acid]: below 5 µM; for `O=C(O)C(Cc1ccccc1)N(Cc1ccc(C(F)(F)F)cc1)C(=O)c1ccc(Cl)cc1Cl` (stereo not shown) [compound #171, 2-[(2,4-Dichloro-benzoyl)-(4-trifluoromethyl-benzyl)-amino]-3-phenyl-propionic acid]: 5 to 20 µM. On to `O=C(O)[C@H](Cc1ccccc1)N(Cc1cnc(-c2cccc([N+](=O)[O-])c2)s1)C(=O)c1ccc(Cl)cc1Cl` [compound #64, 2-{(2,4-Dichloro-benzoyl)-[2-(3-nitro-phenyl)-thiazol-5-ylmethyl]-amino}-3-phenyl-propionic acid], for which the IC50 was below 5 µM.
